# Results reported in PubChem BioAssay (NCI).
# Where “and” joins values, the source holds several entries; their conditions need not be identical. Equal entries are not always repeated.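 Briefly, cells in 96-well plates were exposed to five compound concentrations for 48 h, and endpoints were estimated by linear interpolation. Here, GI50 denotes the concentration required for 50% inhibition of growth. TGI marks complete inhibition of growth.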
# Key:
# Assay in all cases: NCI tumour cell line growth inhibition, 48 h
# DLD-1 colon = test system: DLD-1 colon
# DMS 273 small cell lung = test system: DMS 273 small cell lung
# SK-MEL-28 melanoma = test system: SK-MEL-28 melanoma
# OVCAR-5 ovarian = test system: OVCAR-5 ovarian
# SF-268 CNS = test system: SF-268 CNS
# M19-MEL melanoma = test system: M19-MEL melanoma
# KM20L2 colon = test system: KM20L2 colon
# NCI/ADR-RES ovarian = test system: NCI/ADR-RES ovarian
# SW-620 colon = test system: SW-620 colon
# HCT-116 colon = test system: HCT-116 colon
# LXFL 529 NSCLC = test system: LXFL 529 NSCLC
# DMS 114 small cell lung = test system: DMS 114 small cell lung
# NCI-H522 lung = test system: NCI-H522 lung
Compound,TGI (DLD-1 colon),TGI (DMS 273 small cell lung),TGI (SK-MEL-28 melanoma),TGI (OVCAR-5 ovarian),TGI (SF-268 CNS),TGI (M19-MEL melanoma),TGI (KM20L2 colon),TGI (NCI/ADR-RES ovarian),TGI (SW-620 colon),TGI (HCT-116 colon),TGI (LXFL 529 NSCLC),TGI (DMS 114 small cell lung),TGI (NCI-H522 lung),GI50 (SK-MEL-28 melanoma),GI50 (OVCAR-5 ovarian),GI50 (SF-268 CNS),GI50 (NCI/ADR-RES ovarian),GI50 (SW-620 colon),GI50 (HCT-116 colon),GI50 (NCI-H522 lung)
O=C(NP(=O)(N1CC1)N1CC1)c1cc(I)ccc1I,> 100 µM,> 100 µM,> 100 µM,> 100 µM,> 100 µM,> 100 µM,> 100 µM,> 66.1 µM,> 100 µM,> 100 µM,> 100 µM,99.2 µM,> 92.9 µM,,,,,,,
O=C(Cc1nc2ccccc2s1)Nc1cccc(C(F)(F)F)c1,29.9 µM,42.9 µM,28.8 µM,32.5 µM,29.7 µM,25.6 µM,41.6 µM,,43.2 µM,,27.3 µM,36.3 µM,28.4 µM,,,,,,,
COC(=O)CCC(=O)CC(=O)C(=O)Nc1c(Cl)cc([N+](=O)[O-])cc1Cl,> 100 µM,> 100 µM,> 100 µM,> 100 µM,> 100 µM,> 100 µM,> 100 µM,,,> 100 µM,> 100 µM,77.9 µM,> 100 µM,,,,,,,
CCCCCCCCCCCC1CCCC(C)N1 (stereo unspecified),83.4 µM,136 µM,28.2 µM and 152 µM,28.5 µM and 162 µM,27.2 µM and 147 µM,130 µM,85.9 µM,27.3 µM and 161 µM,,> 41.9 µM and 104 µM,,139 µM,19.9 µM and 96.4 µM,13.6 µM,12.5 µM,11 µM,11.9 µM,2.71 µM,5.82 µM,7.29 µM
CS(=O)(=O)N(N(CCCl)S(=O)(=O)c1ccccc1)S(C)(=O)=O,> 100 µM,> 100 µM,> 100 µM,,> 100 µM,> 100 µM,> 100 µM,,> 100 µM,> 100 µM,> 100 µM,,> 100 µM,,,,,,,
CN(C)CCNC(=O)c1cccc2c1nc(-c1ccccc1)c1ccccc12,15.3 µM,13.2 µM,21.3 µM,17.6 µM,18.5 µM,17.3 µM,,,15.5 µM,13 µM,,,,,,,,,,
COc1cc2c3c(c1OC)-c1c(ccc4c1OCO4)CC3(C#N)N(C(=O)c1ccccc1)CC2 (stereo unspecified),> 100 µM,> 100 µM,,> 100 µM,> 100 µM,> 100 µM,> 100 µM,,> 100 µM,> 100 µM,> 100 µM,> 100 µM,> 100 µM,,,,,,,
CC1(C)Cc2cc(C(=O)O)c3c(c2C1=O)COCC3,> 100 µM,> 100 µM,,> 100 µM,> 100 µM,> 100 µM,> 100 µM,,> 100 µM,> 100 µM,> 100 µM,> 100 µM,> 100 µM,,,,,,,
O=C(Nc1nc2ncn(CCNCc3ccccc3)c2c(=O)[nH]1)c1ccccc1,> 100 µM,> 100 µM,> 100 µM,> 100 µM,> 100 µM,> 100 µM,> 100 µM,,> 100 µM,> 100 µM,> 100 µM,> 100 µM,> 100 µM,,,,,,,
CCOC(=O)C1=C(C)N(c2ccc(C)cc2)C2=C(C(=O)N(c3ccccc3)C2c2ccccc2)C1c1ccccc1 (stereo unspecified),> 25 µM,> 25 µM,> 25 µM,,> 25 µM,> 25 µM,> 25 µM,,> 25 µM,> 25 µM,> 25 µM,> 25 µM,,,,,,,,
COc1ccc(/C=c2\sc3n(c2=O)C(N)=C(C#N)C(c2ccc(OC)cc2)C=3c2nc3ccccc3[nH]2)cc1 (stereo unspecified),,> 100 µM,56.1 µM,67.5 µM,> 100 µM,63.8 µM,> 100 µM,,83.6 µM,64.1 µM,,72.9 µM,> 100 µM,,,,,,,
CC(C)(C)c1cc2c3c(c1)C(C(F)(F)F)(C(F)(F)F)O[Te]3(C)OC2(C(F)(F)F)C(F)(F)F,> 100 µM,> 100 µM,> 100 µM,> 100 µM,> 100 µM,> 100 µM,> 100 µM,,> 100 µM,> 100 µM,> 100 µM,> 100 µM,> 100 µM,,,,,,,
CC(=O)c1ccc(NC(=O)C(=O)Nn2c(=S)[nH]c3ccccc3c2=O)cc1,> 100 µM,,> 100 µM,> 100 µM,> 100 µM,> 100 µM,> 100 µM,,> 100 µM,> 100 µM,> 100 µM,> 100 µM,> 100 µM,,,,,,,
O=[N+]([O-])c1cccc(C2ON2C2CCCCC2)c1 (stereo unspecified),29.9 µM,41.5 µM,> 100 µM,> 100 µM,51 µM,39.9 µM,49.3 µM,,24.7 µM,26.3 µM,45.6 µM,42.9 µM,33.5 µM,,,,,,,
CCOC(=O)C(=Cc1ccc(Oc2ccccc2)cc1)C(=O)OCC,5.21 µM,3.68 µM,7.49 µM,14 µM,9.19 µM,,16.8 µM,,5.9 µM,5.93 µM,6.39 µM,10.9 µM,10.1 µM,,,,,,,
O=C(CCC(=O)C(C(=O)c1ccccc1)c1ccccc1)Nc1cccc(C(F)(F)F)c1 (stereo unspecified),> 100 µM,> 100 µM,,> 100 µM,> 100 µM,> 100 µM,> 100 µM,,> 100 µM,> 100 µM,> 100 µM,> 100 µM,> 100 µM,,,,,,,
O=[N+]([O-])c1cccc(-c2oc(C=Nc3ccccc3)c([N+](=O)[O-])c2-c2cccc([N+](=O)[O-])c2)c1,> 100 µM,> 100 µM,> 100 µM,> 100 µM,> 100 µM,> 100 µM,> 100 µM,,> 100 µM,> 100 µM,> 100 µM,> 100 µM,> 100 µM,,,,,,,
CCc1cccc(C(C)C)c1N1C(=O)C(=O)C(c2nc3ccccc3s2)C(=O)C1=O,> 50 µM,> 50 µM,> 50 µM,> 50 µM,> 50 µM,> 50 µM,> 50 µM,,> 50 µM,> 50 µM,> 50 µM,> 50 µM,48.6 µM,,,,,,,
COc1cc(OC)c(C2CC=Cc3c(OC)cc(OC)c(OC)c32)cc1OC (stereo unspecified),> 100 µM,> 100 µM,> 100 µM,> 100 µM,> 100 µM,> 100 µM,> 100 µM,,> 100 µM,> 100 µM,> 100 µM,> 100 µM,,,,,,,,
CCCCCCCCCCCCCP(=O)(O)OCC,> 100 µM,,> 100 µM,> 100 µM,> 100 µM,> 100 µM,> 100 µM,,> 100 µM,> 100 µM,> 100 µM,> 100 µM,> 100 µM,,,,,,,
NCCCNCCCCN(CCCN)/[N+]([O-])=N\O,> 100 µM,> 100 µM,> 100 µM,> 100 µM,> 100 µM,> 100 µM,> 100 µM,,> 100 µM,> 100 µM,> 100 µM,> 100 µM,,,,,,,,
O=C1C2C3C=CC(C2C(=O)N1COP(=O)(O)O)C1C2C(=O)N(COP(=O)(O)O)C(=O)C2C31 (stereo unspecified),> 75.9 µM,> 56.3 µM,> 100 µM,> 100 µM,> 100 µM,> 100 µM,> 100 µM,,> 65.2 µM,> 57.6 µM,> 100 µM,> 58.8 µM,> 100 µM,,,,,,,
C=C(Br)N(CC)CC,> 100 µM,> 100 µM,> 100 µM,> 100 µM,> 100 µM,> 100 µM,> 100 µM,,> 100 µM,> 100 µM,> 100 µM,> 100 µM,> 100 µM,,,,,,,
S=c1cc(S)sc2c1c(=S)sc1nc3ccccn3c(=S)c12,> 100 µM,> 100 µM,> 100 µM,> 100 µM,,> 100 µM,> 100 µM,,> 100 µM,> 100 µM,,40.1 µM,,,,,,,,
O=C(Cn1ccnc1[N+](=O)[O-])c1ccc(F)cc1,,> 100 µM,> 100 µM,> 100 µM,> 100 µM,> 100 µM,> 100 µM,,> 100 µM,,> 100 µM,> 100 µM,> 100 µM,,,,,,,
Fc1ccccc1C1CC(c2ccc3ccccc3c2)=Nc2ccccc2S1 (stereo unspecified),,> 100 µM,> 100 µM,> 100 µM,> 100 µM,> 100 µM,> 100 µM,,> 100 µM,> 100 µM,> 100 µM,,> 100 µM,,,,,,,
CCC(=O)c1c(NOC2OC(COC(C)=O)C(OC(C)=O)C(OC(C)=O)C2OC(C)=O)nc(OC)n(C)c1=O (stereo unspecified),> 100 µM,> 100 µM,> 100 µM,> 100 µM,> 100 µM,> 100 µM,> 100 µM,,> 100 µM,> 100 µM,> 100 µM,> 100 µM,> 100 µM,,,,,,,
Cc1ccc(S(=O)(=O)OCC23CCC(CC2)C2CC23)cc1 (stereo unspecified),> 100 µM,> 100 µM,> 100 µM,> 100 µM,> 100 µM,> 100 µM,> 100 µM,,> 100 µM,> 100 µM,> 100 µM,> 100 µM,,,,,,,,
O=C(CC1(O)C(=O)Nc2c(Cl)cc(Cl)cc21)c1cccc2ccccc12 (stereo unspecified),33 µM,27.5 µM,34.1 µM,37.1 µM,40.4 µM,,34.1 µM,,31.8 µM,28.5 µM,28.6 µM,35.6 µM,28.9 µM,,,,,,,
